# In patent US20230123334A1, “AMINO LIPID COMPOUND, PREPARATION METHOD THEREFOR, AND APPLICATION THEREOF” (SHENZHEN SHENXIN BIOTECHNOLOGY CO., LTD., priority 2020, published 2023):
# Test system: HEK293 cells
# Experiment: Preliminary screening as DNA vectors, GFP transfection of HEK293 cells
# Type: cell-based
# Conditions: amino lipid/DOPE liposome with 75 ng plasmid DNA (psin-EGFP-IRES-Puro); number of GFP-expressing cells divided by total nuclei (Hoechst)
# Protocol: Cell line: HEK293 cells (ATCC CRL-1573™)
# Medium: DMEM supplemented with 10% fetal bovine serum (Invitrogen)
# Mode of screening: cell transfection on 96-well plates
# Detection (readout): percentage of the number of GFP fluorescent cells relative to the total number of cells (the total number of cells was measured using nucleus dye Hoechst—see FIG. 2). Lipofectamine2000 (Invitrogen) was used as positive control, according to the manufacturer's instructions.
# Method: an 8-channel pipette was used for sample addition. The contents shown were for a single well of a 96-well flat plate.
# 1. The compound (0.01 mmol) prepared in Example 1 was dissolved in 1 mL of anhydrous ethanol. After ultrasonically dissolved, 10 μL of the resultant amino lipid solution in ethanol was taken and mixed with 5 μL of DOPE solution in ethanol (0.01 m), and then to the obtained mixture was added 35 μL of 0.2M sodium acetate buffer (pH 5.6), and 50 μL of liposome solution was prepared by vortex at a constant rotating speed for 30 s. 4 μL was taken from the 50 μL liposome solution and added to 46 μL of 0.02M sodium acetate buffer (pH 5.6), and the final liposome solution was formed by vortex at a constant rotating speed for 30 s. 5 μL was taken from the final liposome solution and mixed with 75 ng plasmid DNA (psin-EGFP-IRES-Puro, Clontech) dissolved in 5 μL of 0.02 M sodium acetate buffer, and was allowed to stay at room temperature for 30 min to form a lipid/DNA transfection complex.
# 2. 10 μL of the lipid/DNA transfection complex was incubated at room temperature for 30 min, followed by addition of 90 μL of fresh resuspended cells (3-5×10^4 cells) and mixing with a pipette. 100 μL of cells+lipid/DNA complex was transferred to separate wells of a 96-well culture plate immediately, and placed in an incubator containing 5% CO2 at 37° C.
# 3. Hoechst33258 (Invitrogen) was added at a final concentration of 0.2 μg/mL to the cells 20 to 24 hours after initial cell transfection, and cultured in darkness at 37° C. for 15 min. Afterwards, the cells were washed once with a PBS solution, and then added with medium for culture for 20 to 24 h.
# 4. The cells were placed in a high-throughput confocal microscope (Molecular Devices ImageXpress), and four visual fields of the image of the cells were captured for each well, and images at three laser wavelengths were captured for each sample: bright field images of cells (FIG. 2(a) and FIG. 2(b)), Hoechst-staining images showing total nuclei (FIG. 2(c) and FIG. 2(d)) and GFP images showing success in transfection with the plasmid DNA and the expression of GFP (FIG. 2(e) and FIG. 2(f)). MetaXpress software was used to separately count the cells in the Hoechst-staining images and GFP images, and then the number of cells expressing GFP was divided by the total number of nuclei to give the absolute cell transfection efficiency. The absolute transfection efficiency was calculated as follows: […]
compound,measurement,value
CCCCCCCCCCCCCCCCCCNc1nc(NCCCN2CCN(C)CC2)nc(SCCCCCCCCCCC)n1 [S11N18 D9],Absolute DNA transfection efficiency in HEK293 cells,9.3%
CCCCCCCCCCCCN(CCCCCCCCCCCC)c1nc(NCCCN2CCOCC2)nc(SCCCCCCCC)n1 [S8^2N12 D8],Absolute DNA transfection efficiency in HEK293 cells,0.0%
CCCCCCCCCCCCCCCCNc1nc(NCCN2CCCC2)nc(SCCCCCCCCCCCCCC)n1 [S14N16 D3],Absolute DNA transfection efficiency in HEK293 cells,1.3%
CCCCCCCCCCCCN(CCCCCCCCCCCC)c1nc(NCCCN(C)C)nc(SCCCCCCCC)n1 [S8^2N12 D6],Absolute DNA transfection efficiency in HEK293 cells,0.5%
CCCCCCCCCCCCCNc1nc(NCC2CCN(C)CC2)nc(SCCCCCC)n1 [S6N13 D10],Absolute DNA transfection efficiency in HEK293 cells,51.6%
CCCCCCCCCCSc1nc(NCCCCCCCCC)nc(NCCN2CCN(C)CC2)n1 [S10N9 D5],Absolute DNA transfection efficiency in HEK293 cells,11.9%
CCCCCCCCCCCCCCCSc1nc(NCCCCCC)nc(NCC2CCN(C)CC2)n1 [S15N6 D10],Absolute DNA transfection efficiency in HEK293 cells,26.5%
CCCCCCCCCCCCCCCCSc1nc(NCCCCCCCCCCC)nc(NCCN2CCOCC2)n1 [S16N11 D2],Absolute DNA transfection efficiency in HEK293 cells,9.6%
CCCCCCCCCCCCN(CCCCCCCCCCCC)c1nc(NCCN2CCCC2)nc(SCCCCCCCC)n1 [S8^2N12 D3],Absolute DNA transfection efficiency in HEK293 cells,0.1%
CCCCCCCCCCCCCCCNc1nc(NCCCN(C)C)nc(SCCCCCCCC)n1 [S8N15 D6],Absolute DNA transfection efficiency in HEK293 cells,23.7%
CCCCCCCCCCCSc1nc(NCCCCCCCC)nc(NCCCN2CCN(C)CC2)n1 [S11N8 D9],Absolute DNA transfection efficiency in HEK293 cells,23.6%
CCCCCCCCSc1nc(NCCCCCC)nc(NCCN(C)C)n1 [S8N6 D1],Absolute DNA transfection efficiency in HEK293 cells,3.4%
CCCCCCCCCCCCCCCCNc1nc(NCCN(CC)CC)nc(SCCCCCC)n1 [S6N16 D7],Absolute DNA transfection efficiency in HEK293 cells,2.6%
CCCCCCCCCCCSc1nc(NCCN2CCCC2)nc(SCCCCCCC)n1 [S7S11 D3],Absolute DNA transfection efficiency in HEK293 cells,9.7%
CCCCCCCCCCCCCCCSc1nc(NCCCCCCCCCCCC)nc(NCCN2CCCCC2)n1 [S15N12 D4],Absolute DNA transfection efficiency in HEK293 cells,0.1%
CCCCCCCCSc1nc(NCCCN2CCOCC2)nc(SCCCCCCCC)n1 [S8S8 D8],Absolute DNA transfection efficiency in HEK293 cells,13.8%
CCCCCCCCCCCCCCCCCCNc1nc(NCCCN2CCOCC2)nc(SCCCCCCC)n1 [S7N18 D8],Absolute DNA transfection efficiency in HEK293 cells,5.9%
CCCCCCCCCCCCCCCCNc1nc(NCCN2CCOCC2)nc(SCCCCCCCCCCCCCC)n1 [S14N16 D2],Absolute DNA transfection efficiency in HEK293 cells,0.0%
CCCCCCCCCCCCCCCCSc1nc(NCCCCCCCCCCCCCCC)nc(NCCN(C)C)n1 [S16N15 D1],Absolute DNA transfection efficiency in HEK293 cells,1.6%
CCCCCCCCCCCCCCCCCCNc1nc(NCCN2CCN(C)CC2)nc(SCCCCCCCCCCCCCCC)n1 [S15N18 D5],Absolute DNA transfection efficiency in HEK293 cells,0.3%
CCCCCCCCCCCCSc1nc(NCCCCCCCC)nc(NCCCN2CCOCC2)n1 [S12N8 D8],Absolute DNA transfection efficiency in HEK293 cells,0.0%
CCCCCCCCCCCCCCCNc1nc(NCCCN(C)C)nc(SCCCCCCCCCCCCCCC)n1 [S15N15 D6],Absolute DNA transfection efficiency in HEK293 cells,0.0%
CCCCCCCCCCCCCCCCSc1nc(NCCCCCCC)nc(NCCCN(C)C)n1 [S16N7 D6],Absolute DNA transfection efficiency in HEK293 cells,12.9%
CCCCCCNc1nc(NCCN2CCCC2)nc(SCCCCCC)n1 [S6N6 D3],Absolute DNA transfection efficiency in HEK293 cells,0.0%
CCCCCCCCCCCCCCCCNc1nc(NCCCN2CCN(C)CC2)nc(SCCCCCCCCCCCCCCC)n1 [S15N16 D9],Absolute DNA transfection efficiency in HEK293 cells,0.2%
CCCCCCCCCCCCCCCCCCSc1nc(NCCCCCCCCCCCC)nc(NCCCN(C)C)n1 [S18N12 D6],Absolute DNA transfection efficiency in HEK293 cells,0.5%
CCCCCCCCCCCCCCSc1nc(NCCCCCCCCCCC)nc(NCCN2CCN(C)CC2)n1 [S14N11 D5],Absolute DNA transfection efficiency in HEK293 cells,13.3%
CCCCCCCCCCCCCCCNc1nc(NCCN2CCN(C)CC2)nc(SCCCCCC)n1 [S6N15 D5],Absolute DNA transfection efficiency in HEK293 cells,22.3%
CCCCCCCCCCCCCCCCSc1nc(NCCCCCCCCCCCCC)nc(NCCN2CCCC2)n1 [S16N13 D3],Absolute DNA transfection efficiency in HEK293 cells,1.5%
